Test results as given in patent US6498252B1, “Pyrimidine-2,4,6-trione derivatives, processes for their production and pharmaceutical agents containing these compounds” (priority 1999, dated 2002).

The molecules below were run against T1, MMP-8, catalytic domain (Homo sapiens, UniProt P22894) (assay: Inhibition of MMP-8 (HNC) catalytic domain, fluorogenic substrate cleavage). Conditions: not given.
T1 construct: Enzyme: 8 nM catalytic domain (Met80-Gly242) of human neutrophil collagenase (MMP-8); made in house
T1 sequence (P22894 100-262 limits assumed): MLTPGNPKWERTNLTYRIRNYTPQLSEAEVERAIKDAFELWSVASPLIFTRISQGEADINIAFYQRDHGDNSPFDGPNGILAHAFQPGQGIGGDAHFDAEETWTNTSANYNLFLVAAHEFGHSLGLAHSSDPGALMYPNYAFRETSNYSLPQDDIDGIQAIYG
Assay type: biochemical
Procedure: In order to determine the inhibition of MMPs, for example HNC (MMP-8), the catalytic domain (isolation and purification see for example Schnierer, S., Kleine, T., Gote, T., Hillemann, A., Knäuper, V., Tschesche, H.,Biochem. Biophys. Res. Commun. (1993) 191, 319-326) were incubated with inhibitors having various concentrations. Subsequently, the initial reaction rate in the conversion of a standard substrate was measured in a manner analogous to Grams F. et al., FEBS 335 (1993) 76-80).
The results awee evaluated by plotting the reciprocal reaction rate against the concentration of the inhibitor. The inhibition constant (Ki) is obtained as the negative section of the abscissis by the graphical method according to Dixon, M., Biochem. J. (1953) 55, 170-202.
The synthetic collagenase substrate was a heptapeptide which is coupled, at the C terminus, with DNP (dinitrophenol). Said DNP residue quenched by steric hindrance the fluorescence of the adjacent tryptophane of the heptapeptide. After cleavage of a tripeptide which includes the DNP group, the tryptophane fluorescence increased. The proteolytic cleavage of the substrate therefore was measured by the fluorescence value.
The assay was performed at 25° C. in a freshly prepared 50 mM Tris buffer (pH 8.0) treated with dithiozone to remove traces of heavy metals. 4 mM CaCl2 was added and the buffer saturated with argon. Stock solutions of adamalysin II were prepared by centrifugation of the protein from an ammonium sulfate suspension and subsequent dissolution in the assay buffer. Stock solutions of collagenase were diluted with the assay buffer. Enzyme concentrations were determined by uv measurements (ε280=2.8 10^4 M^−1 cm^−1, ε288: 2.2 10^4 M^−. cm^−1) and the stock solutions were stored in the cold. This solution was diluted 1:100 to obtain the final 16 nM assay concentration. The fluorogenic substrate DNP-Pro-Leu-Gly-Leu-Trp-Ala-D-Arg-NH2 with a Km of 52 μM was used at a concentration of 21.4 μM; for the Ki determination a 12.8 μM concentration has also been used. Substrate fluorescence was measured at an excitation and emission wavelength of λ=320 and 420 nm, respectively, on a spectrofluorimeter (Perkin Elmer, Model 650-40) equipped with a thermostated cell holder. Substrate hydrolysis was monitored for 10 minutes. immediately after adding the enzyme. All reactions were performed at least in triplicate. The Ki values-of the inhibitors were calculated from the intersection point of the straight lines obtained by the plots of vo/vi vs. [concentration of inhibitor], whereas IC50 values were calculated from plots of vi/vo [concentration of inhibitor] by non-linear regression with simple robust weighting.
50 mM Tris/HCI pH 7.6 (Tris=Tris-(hydroxymethyl)-aminomethan)
100 mM NaCl/10 mM CaCl2/5% MeOH (ff necessary)
Enzyme: 8 nM catalytic domain (Met80-Gly242) of human neutrophil collagenase (MMP-8)
10 microM DNP-Pro-Leu-Gly-Leu-Trp-Ala-D-Arg-NH2
A solution of the enzyme and inhibitor in assay buffer (25° C.) was prepared. The reaction was started by giving the substrate into the solution. The cleavage of the fluorogenic substrate was followed by fluorescence spectroscopy with an excitation and emission wavelength of 280 and 350 nm, respectively. The IC50 value was calculated as the inhibitor concentration, which is necessary to decrease the velocity of the reaction to the half in comparison to the reaction without inhibitor.
118 cited in the patent application EP0869947
O=C1NC(=O)C(c2ccc(Oc3ccc(Cl)cc3)cc2)(N2CCN(c3ccc(S(=O)(=O)NC(CO)(CO)CO)cc3)CC2)C(=O)N1 [Example 5 - no. 19, 4-(4-5-[4-(4-Chloro-phenoxy)-phenyl]-2,4,6-trioxo-hexahydro-pyrimidin-5-yl-piperazin-1-yl)-N-(2-hydroxy-1,1-bis-hydroxymethyl-ethyl)-benzenesulfonamide] showed an IC50 of 9 nM. O=C1NC(=O)C(c2ccc(Oc3ccc(Cl)cc3)cc2)(N2CCN(c3ccc(S(=O)(=O)N(CCO)CCO)cc3)CC2)C(=O)N1 [Example 5 - no. 10, 4-(4-5[-4-(4-Chloro-phenoxy)-phenyl]-2,4,6-trioxo-hexahydro-pyrimidin-5-yl-piperazin-1-yl)-N,N-bis-(2-hydroxy-ethyl)-benzenesulfonamide] gave an IC50 of 9 nM. O=C1NC(=O)C(c2ccc(Oc3ccccc3)cc2)(N2CCN(c3ccc(S(=O)(=O)NCC(O)CO)cc3)CC2)C(=O)N1 (stereo not shown) [Example 5 - no. 11, N-(2,3-Dihydroxy-propyl)-4-4-[2,4,6-trioxo-5-(4-phenoxy-phenyl)-hexahydro-pyrimidin-5-yl]-piperazin-1-yl-benzenesulfonamide] showed an IC50 of 4.5 nM. In the case of O=C1NC(=O)C(c2ccc(Oc3ccccc3)cc2)(N2CCN(c3ccc(S(=O)(=O)NCCOCCOCCO)cc3)CC2)C(=O)N1 [Example 5 - no. 13, N-2-[2-(2-Hydroxy-ethoxy)-ethoxy]-ethyl-4-4-[2,4,6-trioxo-5-(4-phenoxy-phenyl)-hexahydro-pyrimidin-5-yl]-piperazin-1-yl-benzenesulfonamide], the IC50 is reported as 6 nM. With NS(=O)(=O)c1ccc(N2CCN(C3(c4ccc(Oc5ccc(Cl)cc5)cc4)C(=O)NC(=O)NC3=O)CC2)cc1 [Example 5 - no. 9, 4-(4-5-[4-(4-Chloro-phenoxy)-phenyl]-2,4,6-trioxo-hexahydro-pyrimidin-5-yl-piperazin-1-yl)-benzenesulfonamide] the IC50 was 12 nM. For O=C1NC(=O)C(c2ccc(Oc3ccccc3)cc2)(N2CCN(c3ccc(S(=O)(=O)NC(CO)CO)cc3)CC2)C(=O)N1 [Example 5 - no. 12, N-(2-Hydroxy-1-hydroxymethyl-ethyl)-4-4-[2,4,6-trioxo-5-(4-phenoxy-phenyl)-hexahydro-pyrimidin-5-yl]-piperazin-1-yl-benzenesulfonamide], the IC50 was 5.5 nM. O=C1NC(=O)C(c2ccc(Oc3ccccc3)cc2)(N2CCN(c3ccc(S(=O)(=O)NCC4COC(=O)O4)cc3)CC2)C(=O)N1 (stereo not shown) [Example 6, N-(2-Oxo-[1,3]dioxolan-4-ylmethyl)-4-4-[2,4,6-trioxo-5-(4-phenoxy-phenyl)-hexahydro-pyrimidin-5-yl]-piperazin-1-yl-benzenesulfonamide] was tested, and the IC50 was 9 nM.

Same assay, conditions: catalytic domain of human neutrophil collagenase (MMP-8); substrate DNP-Pro-Leu-Gly-Leu-Trp-Ala-D-Arg-NH2; 25° C.; read-out: IC50 Values of MMP-Inhibitor (vs. MMP-8, catalytic domain)
O=C1NC(=O)C(c2ccc(Oc3ccc(Cl)c(Cl)c3)cc2)(N2CCN(c3ncccn3)CC2)C(=O)N1 [Example 3 - no. 1, 5-[4-(3,4-Dichloro-phenoxy)-phenyl]-5-(4-pyrimidin-2-yl-piperazin-1-yl)-pyrimidine-2,4,6-trione] was tested, and the IC50 was 4 nM. Work on NS(=O)(=O)c1ccc(N2CCN(C3(c4ccc(Oc5ccc(Br)cc5)cc4)C(=O)NC(=O)NC3=O)CC2)cc1 [Example 5 - no. 6, 4-(4-5-[4-(4-Bromo-phenoxy)-phenyl]-2,4,6-trioxo-hexahydro-pyrimidin-5-yl-piperazin-1-yl)-benzenesulfonamide] yielded an IC50 of 2.8 nM. O=C1NC(=O)C(c2ccc(Oc3ccccc3)cc2)(N2CCN(c3ccc(S(=O)(=O)NC(CO)(CO)CO)cc3)CC2)C(=O)N1 [Example 5 - no. 18, N-(2-Hydroxy-1,1-bis-hydroxymethyl-ethyl)-4,4-[2,4,6-trioxo-5-(4-phenoxy-phenyl)-hexahydro-pyrimidin-5-yl]-piperazin-1-yl-benzenesulfonamide] showed an IC50 of 13 nM. Molecule O=C1NC(=O)C(c2ccc(Oc3ccc(Cl)c(Cl)c3)cc2)(N2CCN(c3cnccn3)CC2)C(=O)N1 [Example 3 - no. 2, 5-[4-(3,4-Dichloro-phenoxy)-phenyl]-5-(2,3,5,6-tetrahydro-[1,2′]bipyrazinyl-4-yl)-pyrimidine-2,4,6-trione] has an IC50 of 2 nM. In the case of O=C1NC(=O)C(c2ccc(Oc3ccc(Cl)cc3)cc2)(N2CCN(c3cnccn3)CC2)C(=O)N1 [Example 2], the IC50 is reported as 4 nM. O=C1NC(=O)C(c2ccc(Oc3ccc(Cl)cc3)cc2)(N2CCN(c3ncccn3)CC2)C(=O)N1 [Example 1, 5-(4-(4-Chloro-phenoxy)-phenyl)-5-(4-pyrimidine-2-yl-piperazine)-pyrimidine-2,4,6-trione] gave an IC50 of 10 nM. Molecule CN(C)CCNS(=O)(=O)c1ccc(N2CCN(C3(c4ccc(Oc5ccc(Br)cc5)cc4)C(=O)NC(=O)NC3=O)CC2)cc1 [Example 5 - no. 7, 4-(4-5-[4-(4-Bromo-phenoxy)-phenyl]-2,4,6-trioxo-hexahydro-pyrimidin-5-yl-piperazin-1-yl)-N-(2-dimethylamino-ethyl)-benzenesulfonamide] has an IC50 of 13 nM. Work on O=C1NC(=O)C(c2ccc(Oc3ccc(Cl)cc3)cc2)(N2CCN(c3ccc(S(=O)(=O)NCCO)cc3)CC2)C(=O)N1 [Example 4, 4-(4-5-[4-(4-Chloro-phenoxy)-phenyl]-2,4,6-trioxo-hexahydro-pyrimidin-5-yl-piperazin-1-yl)-N-(2-hydroxy-ethyl)-benzenesulfonamide] yielded an IC50 of 10 nM. For O=C1NC(=O)C(c2ccc(Oc3ccc(Br)cc3)cc2)(N2CCN(c3ncccn3)CC2)C(=O)N1 [Example 3 - no. 15, 5-[4-(4-Bromo-phenoxy)-phenyl]-5-(4-pyrimidin-2-yl-piperazin-1-yl)-pyrimidine-2,4,6-trione], the IC50 was 4 nM.
